# A melting point compilation (Tetko et al.; mined from patent text by program, amines drawn as free bases though some values may be those of a salt)
row,Compound,melting point [°C]
1,COc1ccc2ncnc(N3CCc4ccc(Cl)cc43)c2c1,243
2,O=C1c2ccccc2C(=O)N1OCC/C=C/c1cccs1,69 to 71
3,Cc1ccc(COc2ccc(CC(NC(=O)c3cc4cc(-c5ccc(Cl)cc5)ccc4s3)C(=O)O)cc2)cc1 (configuration not stated),208
4,N#CC(C=O)c1ccc(NS(=O)(=O)c2cccc(Cl)c2Cl)cc1 (configuration not stated),88 to 102
5,CC(C)Oc1ccc(C(=O)c2[nH]c3cc(Cl)ccc3c2CC(=O)O)cc1,216 to 218
6,CN1C(=O)CC[C@]2(C)c3ccc(Sc4nc5c(OC(F)(F)F)cccc5s4)cc3CC[C@@H]12,168 to 173
7,CC(C)(C)OC(=O)NC(C)(C)c1ccc(-c2ccno2)cc1,145 to 146
8,CN(C)CCCOc1ccc(C(=O)NN)cn1,81 to 83
9,CCOC(=O)c1nc(C(C)(C)C)nc2ccccc12,46 to 47
10,CC(=O)Nc1ccc(CN2C(=O)[C@H]3CCC[C@H]3N(C(=O)CN3C(=O)c4ccccc4C3=O)c3ccccc32)cc1 (relative stereo),303 to 306
11,Cn1c(CO)nnc1NCCCCOc1cccc(CN2CCCCC2)c1,128 to 130
12,CC(C)(C)OC(=O)NCc1ccc(CNC(=O)N2CCN(C(=O)OCc3ccccc3)CC2)cc1,128
13,Cc1cc(O)c(C)c2c1C(C)CC(C)(C)O2 (configuration not stated),88 to 89
14,O=C(O)C1=Cc2cc(OCc3ccccc3)c(OCc3ccccc3)cc2CCC1,180 to 181
15,N#CCc1ccc(OCc2ccccc2)c([N+](=O)[O-])c1,91 to 97
16,COc1ccc(CC2=C(C)N=NC2=O)cc1OC1CCCC1,186 to 187
17,CSc1[nH]nc(-c2ccc(Cl)cc2F)c1C,88 to 90
18,CS(=O)c1cc2n(c1C(=O)c1ccc(Br)cc1)CCC2C(=O)O (configuration not stated),226 to 227
19,CC1(C)OCCc2c1n(Cc1ccccc1)c1ccccc21,132 to 134
20,CC(=O)C(=Cc1cc(O)c(O)c([N+](=O)[O-])c1)C(C)=O,175 to 178
21,Nc1cc(-c2noc(-c3cnn4ccc(-c5ccc(C(F)(F)F)cc5)nc34)n2)ccn1,250
22,CC(C)Oc1ccnc2[nH]cc(-c3ccnc(N)n3)c12,> 210
23,CCCCNS(=O)(=O)c1ccc(N2CCC(NC[C@H](O)COc3cccc4[nH]c(=O)[nH]c34)CC2)cc1,69 to 75
24,COc1ccc(C#N)c(F)c1O,198 to 200
25,O=C1Nc2ccc3ccccc3c2CCC1(Cl)Cl,187 to 191
26,CCCc1c(OCC(O)COc2ccc3c(=O)cc(C(=O)O)oc3c2CCC)ccc(C(C)=O)c1O (configuration not stated),199 to 201

row,Compound,melting point [°C]
1,COC(=O)C=Cc1[nH]c(=O)c2c(ccc3nc(Nc4c(Cl)cccc4Cl)n(C)c32)c1C,> 300
2,CCOC(=O)C1=C(C#N)NC(C)=C(C(=O)OCCN(CC)CC)C1c1cccc([N+](=O)[O-])c1 (configuration not stated),150 to 152
3,O=c1n(CCN2CCN(c3ccc4cc[nH]c4c3)CC2)c2ccccc2n1C1=CCCCC1,171 to 173
4,CCN(CC)C(=N)N[N+](=O)[O-],96 to 97
5,CC(=O)Oc1ccc2c(c1)CCC1C2C(O)CC2(C)C(=O)CCC12 (configuration not stated),180 to 182
6,C[Si](C)(C)CCOc1ccc(N)cn1,59 to 61
7,Cc1cc(C)c(NC(=O)CC23CC4CC(CC(C4)C2)C3)cc1C,158
8,CN(C)C=C1C(=O)N(c2cccc(Cl)c2)c2ccccc21,116 to 118
9,COC(=O)c1ccc(-c2cc(=O)c3ccc(N)cc3o2)cc1,> 260
10,COC(=O)N(C)CCc1ccc([N+](=O)[O-])c(CS(=O)(=O)c2ccccc2)c1,42
11,Cc1nn(-c2ccccc2)c(-c2ccccc2)c1NC(N)=S,212 to 214
12,COc1ccc(CC(C(=O)O)N(CCCNC(=O)OC(C)(C)C)C(=O)CBr)cc1 (configuration not stated),79 to 81
13,O=[N+]([O-])c1c(Br)c(Br)cc2c1OC(F)(F)C(F)(F)O2,91 to 92
14,CN(C)CCCCCCOc1ccc(C(=O)c2ccc(F)cc2)cc1,37 to 38
15,CCOC(=O)C1=C(C)NC(N=CN(C)C)=C(C(=O)OCC)C1c1cccc(OC)c1 (configuration not stated),136
16,C[Si](C)(C)C#Cc1ccnc(Cl)n1,51 to 54
17,COc1cc([N+](=O)[O-])ccc1CBr,94 to 96
18,CCC(=O)N1CCC(NC(=O)Nc2ccccc2F)CC1,127 to 130
19,Oc1nc2ccc(Cl)cc2nc1O,> 260
20,ON=C1CCC2(CC1)Cc1ccccc1C2,120 to 122
21,N#CCCOc1cccc(O)c1C=O,84 to 86
22,CCOC(=O)Cc1cc(C)c(C(=O)c2ccc(Cl)c(Cl)c2)n1C,92 to 93.5
23,Cc1nnc(O[Si](C)(C)C)nc1O[Si](C)(C)C,43
24,CCC(=O)NCc1ccc(CN2CCN(c3ccccc3)CC2)cc1,140 to 141
25,O=C(O)c1ccc(OCc2ccccc2)cc1O,179 to 180
26,Cc1nc2ccc(S(=O)(=O)n3c(COC(C)(C)C(=O)O)cc4cc(Cl)ccc43)cc2s1,172 to 174

row,Compound,melting point [°C]
1,CCCCOC(=O)c1cccc(I)c1C(=O)NC(C)(C)CS(C)=O (configuration not stated),57.5 to 66.3
2,Cn1ncc2c1-c1c(Oc3ccc(N)cc3)sc(C(N)=O)c1CC2,214 to 216
3,CCOCCS(=O)(=O)C(F)(F)C(O)(Cn1cncn1)c1ccc(F)cc1F (configuration not stated),89 to 91
4,COc1ccc2c(c1)c(Cc1nc(-c3ccc4ccccc4c3)cs1)c(C)n2C(=O)c1ccc(Cl)cc1,131 to 133
5,COc1cc(N)c(Cl)cc1C(=O)N[C@@H]1CCN(CCCC(=O)N2CCCC2)C[C@H]1O (relative stereo),175
6,COc1ccc(-n2nc(Sc3ccc4ccccc4c3)c(C)c(C#N)c2=O)cc1,169 to 170
7,CC(O)c1ccc(C(O)(c2ccc3c(c2)c(-c2cccc(Cl)c2)cc(=O)n3C)c2cncn2C)cc1 (configuration not stated),181
8,CC1=NN(c2ccc(Cl)cc2)C(c2ccc(NC(=O)c3cccc(I)c3C(=O)NC(C)C)c(C)c2)C1 (configuration not stated),222 to 224
9,CN1CCN(c2nc3c(c(NCCO)n2)SCCC3)CC1,162 to 164
10,COc1ccc(C2C(C(=O)c3ccc(C(C)C)cc3)=C(O)C(=O)N2c2ccc(C)nn2)cc1 (configuration not stated),263 to 267
11,CN(C)c1cccc(-c2ccc3c(C(N)=O)nn(-c4ccc(S(N)(=O)=O)cc4)c3c2)c1,237 to 238
12,COc1ccc([N+](=O)[O-])c2c1C(=O)CCC2,65 to 71
13,Cc1cccc2c1C(=O)N(C)Cc1c(I)ncn1-2,106 to 108
14,COc1cc(C(=O)NCCc2ccc(F)cc2)cnc1C(=O)O,110
15,Cn1ncc(C(=O)N2CCC2)c1C(=O)Nc1ccc2nc(-c3cccnc3)nn2c1,272
16,CCc1ccc(C(=O)C(=O)O)[nH]1,126 to 128
17,CCOP1(=O)OCc2ccccc21 (configuration not stated),60
18,Cc1cc(-c2cnn3c(C(F)(F)F)cc(-c4ccc(C(F)(F)F)c(F)c4)nc23)cc(C)n1,245
19,OCC[C@H](O)COC(c1ccccc1)(c1ccccc1)c1ccccc1,68.8 to 70.9
20,Cc1ccc(S(=O)(=O)N2CCC[C@H]2C(=O)N2c3ccc(Cl)c(Cl)c3C[C@@H]2C)cc1,170 to 173
21,COC(CN1CCN(c2ccc(F)cc2)CC1)CN1c2cccc3cccc(c23)S1(=O)=O (configuration not stated),128
22,Cn1c(=O)c2[nH]cnc2n(CCCC(=O)O)c1=O,220 to 221
23,Cc1cccc2c1nc(COc1ccc(Cl)cc1)n2CCC(Cc1ccccc1)C(=O)N1CCCCC1 (configuration not stated),93.5 to 95
24,O=C(NCCc1cncn1CCc1ccccc1)[C@H]1CN(Cc2ccccc2)CCN1C(=O)NC1CCCCC1,64.4
25,CN(C)Cc1ccc(CSCCNc2ncc([N+](=O)[O-])c(=O)[nH]2)o1,201 to 204
26,OCc1cccc2c1CCCN2,120 to 122

row,Compound,melting point [°C]
1,Cc1ccc(N(C(=O)CCl)c2c(F)cc(F)cc2Cl)cc1,137 to 140
2,CCN1C[C@@H](O)[C@H](NC2CCCCC2)C1 (relative stereo),68 to 71
3,N#CCC(=O)Nc1ccc(-c2ccc(C(=O)O)c(=O)[nH]2)cc1,> 280
4,O=C(Nc1cccc(Cl)c1)c1cc2ccccc2s1,179
5,O=C(NC1(O)CC1)c1ccccc1,153 to 155
6,CC(C)(N)c1ccc(-c2nc(Nc3cc(F)cc(F)c3)ncc2C#N)cc1,209
7,O=C(O)Cc1c(C(=O)c2ccccc2)[nH]c2cc(Cl)c(Cl)cc12,206 to 210
8,CC(=O)OC1CSC(Oc2ccnc(-c3ccncc3)c2)C(OC(C)=O)C1OC(C)=O (configuration not stated),185
9,COC(=O)c1ccccc1-c1cc(-c2ccc(Cl)cc2Cl)no1,94 to 96
10,CC(=NNC(=O)C1CC1)c1ccc(Cl)nc1,218
11,CCCCCCCNC(=O)Nc1ccc(OC)cc1NC(=O)c1cc(C(C)(C)C)c(O)c(C(C)(C)C)c1,150 to 151
12,O=C(NCC1CCCC1)c1ccc2c(Br)n[nH]c2c1,119 to 125
13,Cc1oc(-c2ccccc2)nc1C(=O)COc1ccc(CCC2OCCO2)cc1,119 to 120
14,N#Cc1cc(-c2nccs2)nn1-c1ccc(NC(=O)c2ccncc2F)cc1,210 to 211
15,N#CC(C(=O)CBr)c1cccc(Cl)c1 (configuration not stated),124 to 132
16,CCOC(=O)c1ncc2[nH]c3ccc(NC(C)=O)cc3c2c1C,273 to 278
17,CC(=O)N1CCN=C1Nc1cc(C(C)C)nn1C(C)C,139 to 140
18,O=C(O)C=CC(=O)Nc1ccc(C(=O)O)cc1,217 to 219
19,c1ccc(CNc2nc3cc(-c4ccccc4)nnc3c3ccccc23)cc1,207 to 209
20,CCOC(=O)Cc1ccc(OCc2ccc3c(c2)OCO3)cc1,49 to 52
21,CCOC(=O)c1cnc2c(OC)cccc2c1Nc1cscc1C,162 to 164
22,Cc1ccccc1-c1ccc(C(=O)N2Cc3ccc(C(=O)NCc4cccnc4)n3Cc3ccccc32)cc1,176 to 177
23,Cc1cc2cccc([C@H](O)CO)c2nc1-c1ccccc1,117
24,O=C1c2ccccc2C(=O)c2oc(-c3cccc(F)c3)nc21,230
